Source: article PMC12155096 (International Journal of Molecular Sciences, 2025)
Where two headings read alike, the source gives them in different places. Blank lines part the entries; values can stand above or below the molecule they belong to.

Experiments:
[1] = target: Photinus pyralis (firefly) luciferase (Photinus pyralis, UniProt P08659); test: biochemical; format: biochemical
[2] = target: T1, human CYP1A2 (Homo sapiens, UniProt P05177)
T1 sequence (P05177 1-516): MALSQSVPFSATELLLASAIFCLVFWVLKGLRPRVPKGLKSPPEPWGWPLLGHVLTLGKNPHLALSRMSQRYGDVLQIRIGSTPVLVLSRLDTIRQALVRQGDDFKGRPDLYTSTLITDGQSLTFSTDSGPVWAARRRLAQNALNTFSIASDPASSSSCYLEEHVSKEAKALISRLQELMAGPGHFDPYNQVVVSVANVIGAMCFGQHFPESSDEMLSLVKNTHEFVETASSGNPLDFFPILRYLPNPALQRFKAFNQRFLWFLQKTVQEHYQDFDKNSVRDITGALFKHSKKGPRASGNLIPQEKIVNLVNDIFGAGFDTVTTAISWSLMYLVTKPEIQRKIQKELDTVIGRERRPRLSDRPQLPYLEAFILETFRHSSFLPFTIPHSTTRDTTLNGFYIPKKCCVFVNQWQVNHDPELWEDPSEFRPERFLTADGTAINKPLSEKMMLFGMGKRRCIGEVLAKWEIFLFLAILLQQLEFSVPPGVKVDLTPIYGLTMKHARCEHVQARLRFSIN

[3] = target: T2, human CYP2C9 (Homo sapiens, UniProt P11712); test: biochemical
T2 sequence (P11712 whole entry): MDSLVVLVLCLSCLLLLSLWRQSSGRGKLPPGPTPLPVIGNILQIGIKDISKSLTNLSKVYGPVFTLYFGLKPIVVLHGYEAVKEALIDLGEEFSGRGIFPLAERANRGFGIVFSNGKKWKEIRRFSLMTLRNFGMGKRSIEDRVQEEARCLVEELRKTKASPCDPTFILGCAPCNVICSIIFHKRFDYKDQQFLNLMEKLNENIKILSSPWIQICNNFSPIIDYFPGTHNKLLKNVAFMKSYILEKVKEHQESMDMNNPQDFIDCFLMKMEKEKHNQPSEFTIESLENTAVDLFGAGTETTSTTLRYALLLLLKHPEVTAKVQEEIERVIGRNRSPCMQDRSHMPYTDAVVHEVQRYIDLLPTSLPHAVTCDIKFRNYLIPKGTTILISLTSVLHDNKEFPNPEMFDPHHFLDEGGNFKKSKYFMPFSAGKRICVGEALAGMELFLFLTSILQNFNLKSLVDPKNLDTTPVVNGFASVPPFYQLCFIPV

[4] = target: T3, human CYP2C19 (Homo sapiens, UniProt P33261); test: biochemical
T3 sequence (P33261 whole entry): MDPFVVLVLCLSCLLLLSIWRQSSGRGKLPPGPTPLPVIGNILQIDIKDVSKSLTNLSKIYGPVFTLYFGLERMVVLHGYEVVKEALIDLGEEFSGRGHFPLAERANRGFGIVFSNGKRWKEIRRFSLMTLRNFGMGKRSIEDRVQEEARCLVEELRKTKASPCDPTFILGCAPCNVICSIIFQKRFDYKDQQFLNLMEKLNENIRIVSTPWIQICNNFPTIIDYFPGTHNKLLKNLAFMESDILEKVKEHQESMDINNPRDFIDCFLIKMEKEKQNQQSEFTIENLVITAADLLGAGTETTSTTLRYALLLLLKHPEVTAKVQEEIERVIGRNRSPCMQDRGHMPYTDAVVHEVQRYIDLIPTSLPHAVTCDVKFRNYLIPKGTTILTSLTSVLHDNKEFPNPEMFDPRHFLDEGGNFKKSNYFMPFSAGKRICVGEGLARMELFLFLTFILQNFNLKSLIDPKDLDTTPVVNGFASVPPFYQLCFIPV

[5] = target: human CYP2D6 (Homo sapiens, UniProt P10635); test: biochemical
human CYP2D6, sequence (P10635 whole entry): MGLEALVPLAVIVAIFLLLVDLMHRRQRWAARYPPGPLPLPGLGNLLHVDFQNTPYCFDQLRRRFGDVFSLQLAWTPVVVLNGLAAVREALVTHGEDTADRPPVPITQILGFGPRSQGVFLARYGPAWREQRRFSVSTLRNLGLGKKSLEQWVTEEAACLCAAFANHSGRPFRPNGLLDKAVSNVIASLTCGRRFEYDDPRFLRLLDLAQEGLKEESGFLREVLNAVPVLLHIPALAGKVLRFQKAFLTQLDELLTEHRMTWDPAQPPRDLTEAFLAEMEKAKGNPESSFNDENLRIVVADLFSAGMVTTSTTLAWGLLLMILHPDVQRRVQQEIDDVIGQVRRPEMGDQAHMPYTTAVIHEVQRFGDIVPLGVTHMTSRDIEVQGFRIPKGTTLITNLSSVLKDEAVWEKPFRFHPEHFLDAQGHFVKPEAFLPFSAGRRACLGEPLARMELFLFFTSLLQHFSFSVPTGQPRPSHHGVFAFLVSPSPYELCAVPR

[6] = target: CYP3A4 (Homo sapiens, UniProt P08684)
CYP3A4, sequence (P08684 whole entry): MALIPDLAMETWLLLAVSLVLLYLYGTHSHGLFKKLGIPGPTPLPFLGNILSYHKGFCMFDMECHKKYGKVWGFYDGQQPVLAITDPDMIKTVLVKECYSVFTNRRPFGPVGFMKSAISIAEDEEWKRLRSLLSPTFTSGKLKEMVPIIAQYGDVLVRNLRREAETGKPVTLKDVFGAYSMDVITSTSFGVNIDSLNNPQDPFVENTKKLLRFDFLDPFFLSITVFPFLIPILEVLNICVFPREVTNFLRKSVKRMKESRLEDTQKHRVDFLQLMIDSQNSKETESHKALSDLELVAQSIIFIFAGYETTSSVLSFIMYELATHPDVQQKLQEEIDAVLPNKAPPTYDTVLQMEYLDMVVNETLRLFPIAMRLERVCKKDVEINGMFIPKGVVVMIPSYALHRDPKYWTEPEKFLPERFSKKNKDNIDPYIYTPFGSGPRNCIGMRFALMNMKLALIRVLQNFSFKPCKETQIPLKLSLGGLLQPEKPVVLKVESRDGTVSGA

[7] = target: T2, human CYP2C9
[8] = target: T1, human CYP1A2; test: biochemical
[9] = target: T3, human CYP2C19
[10] = CYP2C9 AC50 (half-maximal activity concentration)
[11] = CYP2D6 AC50 (half-maximal activity concentration)
[12] = CYP1A2 AC50 (half-maximal activity concentration)
[13] = CYP2C19 AC50 (half-maximal activity concentration)

Photinus pyralis (firefly) luciferase, sequence (P08659 whole entry): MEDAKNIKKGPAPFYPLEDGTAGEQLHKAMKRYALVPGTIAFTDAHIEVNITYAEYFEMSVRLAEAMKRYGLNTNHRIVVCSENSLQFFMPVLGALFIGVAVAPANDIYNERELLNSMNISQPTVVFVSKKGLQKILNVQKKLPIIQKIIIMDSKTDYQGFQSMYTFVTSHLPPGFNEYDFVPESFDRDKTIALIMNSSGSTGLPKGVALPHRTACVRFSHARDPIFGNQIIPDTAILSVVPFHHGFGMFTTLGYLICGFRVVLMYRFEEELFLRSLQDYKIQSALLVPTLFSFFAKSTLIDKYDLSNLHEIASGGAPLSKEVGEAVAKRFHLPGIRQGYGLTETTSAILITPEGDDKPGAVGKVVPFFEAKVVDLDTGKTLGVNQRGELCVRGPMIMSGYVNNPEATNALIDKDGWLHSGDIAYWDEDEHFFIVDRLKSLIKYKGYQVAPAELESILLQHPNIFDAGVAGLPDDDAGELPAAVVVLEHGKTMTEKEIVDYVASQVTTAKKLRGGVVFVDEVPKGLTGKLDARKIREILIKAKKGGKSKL

SMILES: C=CC[C@]1(O)CC[C@H]2[C@@H]3CCC4=CC(=O)CCC4=C3C=C[C@@]21C [Altrenogest]
Luciferase IC50 [1]: Inactive
CYP1A2 IC50 [2]: Inactive
IC50 [3]: 14.8 ± 4.35 µM
IC50 [4]: 8.15 ± 2.81 µM
IC50 [5]: 46.9 ± 11.3 µM

CYP1A2 AC50 (half-maximal activity concentration) [2]: Inconclusive inhibitor
CYP3A4 AC50 (half-maximal activity concentration) [6]: Inconclusive inhibitor
AC50 [3]: 3.66 µM
AC50 [4]: 36 µM
AC50 [5]: 30.9 µM
SMILES: Oc1ccc(Sc2ccc(O)cc2)cc1 [4,4'-Thiodiphenol]

SMILES: Cc1ccc(N(CC2=NCCN2)c2cccc(O)c2)cc1 [Phentolamine mesilate]
Luciferase IC50 [1]: Inactive
CYP1A2 IC50 [2]: Inactive
CYP2C9 IC50 [7]: Inactive
IC50 ([4]; CYP2C19 IC50): 14.6 µM
IC50 ([5]; CYP2D6 IC50): 0.65 µM

CYP3A4 AC50 (half-maximal activity concentration) ([6]; mean ± standard deviation from three experiments, activity call in words where no AC50): Inconclusive inhibitor
AC50 [8]: 38.5 ± 2.51 µM
AC50 [3]: 0.77 ± 0.4 µM
AC50 [4]: 31.8 ± 10.5 µM
AC50 [5]: 63.5 ± 20.9 µM
SMILES: O=C(c1ccc(O)cc1)c1ccc(O)cc1 [4,4'-Dihydoxybenzophenone]

SMILES: CCCCC(CC)CN1CN(CC(CC)CCCC)CC(C)(N)C1 (stereo not shown) [Hexetidine]
Luciferase IC50 [1]: Inactive
CYP1A2 IC50 [2]: Inactive
CYP2C9 IC50 [7]: Inactive
CYP2C19 IC50 [9]: Inactive
IC50 ([5]; CYP2D6 IC50): 0.48 µM

CYP3A4 AC50 (half-maximal activity concentration) [6]: Inactive
AC50 [8]: 7.13 µM
AC50 [3]: 49.3 µM
AC50 [4]: 80 µM
AC50 [5]: 61.4 µM
SMILES: COC(=O)c1cc(Cl)ccc1[N+](=O)[O-] [Methyl 5-chloro-2-nitrobenzoate]

SMILES: C[C@@H](O[C@H]1OCCN(Cc2n[nH]c(=O)[nH]2)[C@H]1c1ccc(F)cc1)c1cc(C(F)(F)F)cc(C(F)(F)F)c1 [Aprepitant]
Luciferase IC50 [1]: Inactive
CYP1A2 IC50 [2]: Inactive
IC50 ([3]; CYP2C9 IC50): 13.8 µM
IC50 ([4]; CYP2C19 IC50): 23.9 µM
IC50 ([5]; CYP2D6 IC50): 25 µM

SMILES: COc1ccc([C@@H]2Sc3ccccc3N(CCN(C)C)C(=O)[C@@H]2OC(C)=O)cc1 [Diltiazem]
Luciferase IC50 (half-maximal inhibitory concentration) [1]: Inactive
CYP1A2 IC50 (half-maximal inhibitory concentration) [2]: Inactive
CYP2C9 IC50 (half-maximal inhibitory concentration) [7]: Inactive
CYP2C19 IC50 (half-maximal inhibitory concentration) [9]: Inactive
IC50 ([5]; CYP2D6 IC50 (half-maximal inhibitory concentration)): 19.1 µM

SMILES: NS(=O)(=O)c1ccc(Cl)c(S(N)(=O)=O)c1 [Clofenamide]
CYP1A2 AC50 (half-maximal activity concentration) [2]: Inactive
CYP2C19 AC50 (half-maximal activity concentration) [9]: Inactive
CYP3A4 AC50 (half-maximal activity concentration) [6]: Inactive
AC50 [3, 10]: 19.8 µM
AC50 [5, 11]: 30.6 µM

SMILES: CCN(CC)CCOC(=O)C(C)(c1ccccc1)c1ccccc1 [Aprofene]
Luciferase IC50 [1]: Inactive
CYP1A2 IC50 [2]: Inactive
IC50 [3]: 12.9 µM
IC50 ([4]; CYP2C19 IC50): 12.3 µM
IC50 [5]: 1.57 µM

SMILES: Oc1cc(Cl)c(Cl)c(Cl)c1 [3,4,5-Trichlorophenol]
CYP3A4 AC50 (half-maximal activity concentration) [6]: Inconclusive inhibitor
AC50 [8, 12]: 26.1 µM
AC50 [3, 10]: 11.1 µM
AC50 [4, 13]: 19.5 µM
AC50 [5, 11]: 29 µM

SMILES: CC(C)(C)c1ccc(O)c(O)c1 [4-tert-Butylcatechol]
CYP3A4 AC50 (half-maximal activity concentration) [6]: Inactive
AC50 [8, 12]: 60 µM
AC50 [3, 10]: 73.7 µM
AC50 [4, 13]: 13.6 µM
AC50 [5, 11]: 9.07 µM

SMILES: O=C1NCN(c2ccccc2)C12CCN(CC1COc3ccccc3O1)CC2 (stereo not shown) [Spiroxatrine]
Luciferase IC50 [1]: Inactive
CYP1A2 IC50 [2]: Inactive
IC50 ([3]; CYP2C9 IC50): 10.8 µM
IC50 ([4]; CYP2C19 IC50): 8.64 µM
IC50 ([5]; CYP2D6 IC50): 0.19 µM

CYP2C19 AC50 (half-maximal activity concentration) [9]: Inconclusive inhibitor
CYP3A4 AC50 (half-maximal activity concentration) [6]: Inconclusive inhibitor
AC50 [8]: 32.1 µM
AC50 [3]: 9.08 µM
AC50 [5]: 61.3 µM
SMILES: Oc1ccc(-c2ccc(O)cc2)cc1 [4,4'-Biphenyldiol]
